# Tests used:
# [1] = Self-diffusion NMR (SD-NMR); format: physicochemical
# Method: In order to characterize the structure of the oily domains, self-diffusion NMR (SD-NMR) analysis was carried out. SD-NMR analysis provides an indication on the location of each component within the structure, by calculating the diffusion coefficient of each component in the system.
# SD-NMR measurements were performed with a Bruker AVII 500 spectrometer equipped with GREAT 1/10 gradients, a 5 mm BBO and a 5 mm BBI probe, both with a z-gradient coil and with a maximum gradient strength of 0.509 and 0.544 T m^−1, respectively. Diffusion was measured using an asymmetric bipolar longitudinal eddy-current delay (bpLED) experiment, or and asymmetric bipolar stimulated echo (known as one-shot) experiment with convection compensation and an asymmetry factor of 20%, ramping the strongest gradient from 2% to 95% of maximum strength in 32 steps. The spectrum was processed with the Bruker TOPSPIN software. NMR spectra were recorded at 25±0.2° C. The components were identified by their chemical shift in 1H NMR.
# [2] = Water dilution of the oily phase; format: physicochemical; details: oily phase loaded with active; un-loaded phase separates above 50 wt % water
# Method: 2 wt % DCF-Na loaded oily composition which is substantially devoid of water (i.e. a concentrate) was prepared according to the process described above. The un-diluted oily composition was constituted by self-assembled oil-solvated clusters or short domains of surfactants, which differ from the classical reverse micelles. These concentrates are dilutable by any suitable diluent, for example by purified water, to form a diluted delivery system.
# It was noted that the oily carrier, i.e. the oily composition without DCF-Na, could not be fully diluted.
structure (smiles),measurement,setting,value
"O=C([O-])Cc1ccccc1Nc1c(Cl)cccc1Cl.[Na+] [DCF-Na, diclofenac sodium]",Diffusion coefficient Dx of DCF-Na,"[1]; 2 wt % DCF-Na formulation, FIGS. 11A-11B",0.1×10^−11 m^2/sec
same,"Diffusion coefficient of DCF-Na, gelled vs non-viscosified","[1]; 80 wt % water, 0.75 wt % gellant",lower in the gelled formulation than in the non-viscosified system
same,Dilutability of the oily phase with water,[2],fully dilutable up to 90 wt %
